From ChEMBL document CHEMBL1255321, “Prevalence of the erm(T) gene in clinical isolates of erythromycin-resistant group D Streptococcus and Enterococcus” (2008) come the findings set out here.

In brackets after ≈: the same amount, converted by molar mass. Activity calls are given as the source filed them. The calls are words filed in the database; no cut-off is given here.

Experiment [1] has as its system Streptococcus sp. The experiment in a line: Antimicrobial activity against Group D Streptococcus sp. clinical isolates assessed as resistant isolates. The experiment is classed as functional.
Experiment [2] concerns Streptococcus sp. In words: Antimicrobial activity against Group D Streptococcus sp. clinical isolates expressing erm(T) gene by Etest. It is filed as functional.
The test system of experiment [3] is Enterococcus faecium. In words: Antimicrobial activity against Group D Enterococcus faecium clinical isolate expressing erm(B) and erm(T) genes by disk diffusion method. It is filed as functional, organism-based.
The subject of experiment [4] is Streptococcus sp. The experiment in a line: Antimicrobial activity against erythromycin-resistant Group D Streptococcus sp. clinical isolates expressing erm(T) gene by Etest. It is filed as functional.
In experiment [5] the test system is Enterococcus faecium. The experiment in a line: Antimicrobial activity against Group D Enterococcus faecium clinical isolate expressing erm(B) gene by disk diffusion method. It is filed as functional, organism-based. (A growth-free zone around the sample is the usual read-out of agar diffusion tests.)
Another experiment concerns Enterococcus faecalis. The experiment in a line: Antimicrobial activity against Group D Enterococcus faecalis clinical isolate expressing erm(B) gene by disk diffusion method. The experiment is classed as functional, organism-based.

Usually MIC stands for the lowest concentration found to suppress growth.

For `CCC[C@@H]1C[C@@H](C(=O)N[C@@H]([C@H]2O[C@H](SC)[C@H](O)[C@@H](O)[C@H]2O)[C@H](C)Cl)N(C)C1` [CLINDAMYCIN], the Activity with Streptococcus sp. [1] was 33%. For the same compound, in the experiment on Streptococcus sp. [2], the minimum inhibitory concentration (MIC) was 0.125 µg/mL (≈ 0.294 µM).

`CC[C@H]1OC(=O)[C@H](C)[C@@H](O[C@H]2C[C@@](C)(OC)[C@@H](O)[C@H](C)O2)[C@H](C)[C@@H](O[C@@H]2O[C@H](C)C[C@H](N(C)C)[C@H]2O)[C@](C)(O)C[C@@H](C)C(=O)[C@H](C)[C@@H](O)[C@]1(C)O` [ERYTHROMYCIN]: the outcome in the experiment on Enterococcus faecium [3], in the experiment with Enterococcus faecium [5] and in the experiment on Enterococcus faecalis was inactive. In addition, the Activity in the experiment with Streptococcus sp. [1] is 54%. Also, the MIC in the experiment on Streptococcus sp. [4] is no less than 256 µg/mL; against Streptococcus sp. [2] it was 0.064 µg/mL (≈ 0.0872 µM).
